{
  "source": "patent US7960408B2",
  "about": "“Quinolinyl and benzothiazolyl modulators” (Amgen Inc., priority 2000, dated 2011)",
  "data": [
    {"molecular_target": "T1, PPARγ (Homo sapiens, UniProt P37231)", "T1 construct": "made in house", "T1 sequence (P37231 1-505)": "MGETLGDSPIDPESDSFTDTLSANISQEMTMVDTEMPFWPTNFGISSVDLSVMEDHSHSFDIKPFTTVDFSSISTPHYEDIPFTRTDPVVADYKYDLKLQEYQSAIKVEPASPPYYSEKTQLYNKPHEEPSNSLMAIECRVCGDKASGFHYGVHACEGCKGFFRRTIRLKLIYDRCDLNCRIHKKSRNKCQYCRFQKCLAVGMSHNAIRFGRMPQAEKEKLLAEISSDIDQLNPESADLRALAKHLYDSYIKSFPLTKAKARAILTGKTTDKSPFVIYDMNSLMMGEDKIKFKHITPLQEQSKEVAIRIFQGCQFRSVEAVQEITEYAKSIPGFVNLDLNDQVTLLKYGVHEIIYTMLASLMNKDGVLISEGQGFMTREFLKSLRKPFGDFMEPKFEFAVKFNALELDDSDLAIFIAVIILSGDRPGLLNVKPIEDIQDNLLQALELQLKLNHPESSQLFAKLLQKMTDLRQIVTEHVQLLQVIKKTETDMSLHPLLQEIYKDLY", "assay": "PPARγ ligand binding assay utilizing [3H]-BRL 49653 as the radioligand", "details": "concentration required to reduce by 50% the specific binding of [3H]-BRL 49653", "excerpt": "The compounds of the present invention can be evaluated for modulation of the PPARγ receptor using assays such as those described in Jiang, et al., Nature 391:82-86 (1998), Ricote, et al., Nature 391:79-82 (1998) and Lehmann, et al., J. Biol. Chem. 270(12): 12953-12956 (1995). Alternatively, the compounds can be evaluated for their ability to displace radiolabeled BRL 49653 from a PPARγ-GST fusion protein as follows:\nPPARγ-GST fusion protein (prepared according to standard procedures), [^3H]—BRL 49653 having 50 Ci/mmol specific activity, Polyfiltronics Unifilter 350 filtration plate and glutathione-Sepharose® beads (from Pharmacia: washed twice with 10× binding buffer in which BSA and DTI can be left out).\nBinding buffer (10 mM Tris-HCl, pH 8.0, 50 mM KCI, 10 mM DTT, 0.02% BSA and 0.01% NP-40) is added in 80-μL amounts to the wells of the filtration plate. The test compound is then added in 10 μL of DMSO. The PPARγ-GST fusion protein and radiolabeled BRL compound are premixed in binding buffer containing 10 mM DTT and added in 10-μL amounts to the wells of the plate to provide final concentrations of 1 μg/well of PPARγ-GST fusion protein and 10 nM [^3H]—BRL 49653 compound. The plate is incubated for 15 min. Glutathione-agarose bead is added in 50 μL of binding buffer, and the plate is vigorously shaken for one hour. The plate is washed four times with 200 μL/well of binding buffer (without BSA and DTT). The bottom of the plate is sealed and 200 μL/well of scintillation cocktail is added. The top of the plate is then sealed and the radioactivity is determined.\nIC50 values are defined as the concentration of test compounds required to reduce by 50% the specific binding of [^3H]—BRL 49653 and are represented by (+) <30 μM; (++) <10 μM; (+++) <1 μM.", "units": {"IC50": "nM"}, "values": [
      {"compound": "2,4-Dichloro-N-[3,5-dichloro-4-(6-methyl-quinoln-3-yloxy)-phenyl]-5-methyl-benzenesulfonamide [Compound 49]", "IC50": "< 1000"},
      {"compound": "O=S(=O)(Nc1cc(Cl)c(Sc2cnc3ccccc3c2)c(Cl)c1)c1ccc(Cl)cc1Cl", "note": "[Compound 4.1]", "IC50": "< 1000"},
      {"compound": "O=S(=O)(Nc1cc(Cl)c(Sc2cnc3ccccc3c2)c(Cl)c1)c1ccccc1", "note": "[Compound 4.2]", "IC50": "< 1000"},
      {"compound": "O=S(=O)(Nc1cc(Cl)c(Sc2cnc3ccccc3c2)c(Cl)c1)c1ccc(C(F)(F)F)cc1Cl", "note": "[Compound 4.3]", "IC50": "< 1000"},
      {"compound": "O=S(=O)(Nc1cc(Cl)c([S+]([O-])c2cnc3ccccc3c2)c(Cl)c1)c1ccc(Cl)cc1Cl", "note": "(stereo not drawn) [Compound 5.2]", "IC50": "< 1000"},
      {"compound": "O=S(=O)(Nc1cc(Cl)c([S+]([O-])c2cnc3ccccc3c2)c(Cl)c1)c1ccccc1", "note": "(stereo not drawn) [Compound 5.3]", "IC50": "1000 to 10000"},
      {"compound": "COC(=O)c1ccc2ncc(Oc3c(Cl)cc(NS(=O)(=O)c4ccc(Cl)cc4Cl)cc3Cl)cc2c1", "note": "[Compound 45, 3-[2,6-Dichloro-4-(2,4-dichloro-benzenesulfonylamino)-phenoxy]-quinoline-6-carboxylic acid methyl ester]", "IC50": "< 1000"},
      {"compound": "COC(=O)c1cccc2cc(Oc3c(Cl)cc(NS(=O)(=O)c4ccc(Cl)cc4Cl)cc3Cl)cnc12", "note": "[Compound 46, 3-[2,6-Dichloro-4-(2,4-dichloro-benzenesulfonylamino)-phenoxy]-quinoline-8-carboxylic acid methyl ester]", "IC50": "< 1000"},
      {"compound": "Cc1cc(S(=O)(=O)Nc2cc(F)c(Oc3cnc4ccccc4c3)c(Cl)c2)c(Cl)cc1Cl", "note": "[Compound 50, N-[3-Chloro-5-fluoro-4-(quinolin-3-yloxy)phenyl]-2,4-dichloro-5-methyl-benzenesulfonamide]", "IC50": "< 1000"},
      {"compound": "O=S(=O)(Nc1cc(Cl)c(Nc2nc3ccc(Cl)cc3s2)c(Cl)c1)c1ccc(Cl)cc1Cl", "note": "[Compound 71]", "IC50": "< 1000"},
      {"compound": "Cc1ccc2nc(Nc3c(Cl)cc(NS(=O)(=O)c4ccc(C(F)(F)F)cc4Cl)cc3Cl)sc2c1", "note": "[Compound 86]", "IC50": "< 1000"},
      {"compound": "O=S(=O)(Nc1cc(Cl)c(Cc2ccc3ccccc3n2)c(Cl)c1)c1ccc(C(F)(F)F)cc1Cl", "note": "[Compound 224, 2-Chloro-N-(3,5-dichloro-4-quinolin-2-ylmethyl-phenyl)-4-trifluoromethyl-benzenesulfonamide]", "IC50": "< 1000"},
      {"compound": "O=S(=O)(Nc1cc(Cl)c(Cc2ccc3ccccc3n2)c(Cl)c1)c1ccc(Cl)cc1Cl", "note": "[Compound 225, 2,4-Dichloro-N-(3,5-dichloro-4-quinolin-2-ylmethyl-phenyl)-benzenesulfonamide]", "IC50": "< 1000"},
      {"compound": "Cc1cc(S(=O)(=O)Nc2cc(Cl)c(Cc3ccc4ccccc4n3)c(Cl)c2)c(Cl)cc1Cl", "note": "[Compound 226, 2,4-Dichloro-N-(3,5-dichloro-4-quinolin-2-ylmethyl-phenyl)-5-methyl-benzenesulfonamide]", "IC50": "< 1000"},
      {"compound": "O=S(=O)(Nc1cc(Cl)c(Cc2cnc3ccccc3c2)c(Cl)c1)c1ccc(C(F)(F)F)cc1Cl", "note": "[Compound 231, 2-Chloro-N-(3,5-dichloro-4-quinolin-3-ylmethyl-phenyl)-4-trifluoromethyl-benzenesulfonamide]", "IC50": "< 1000"},
      {"compound": "O=S(=O)(Nc1cc(Cl)c(Cc2cnc3ccccc3c2)c(Cl)c1)c1ccc(Cl)cc1Cl", "note": "[Compound 232, 2,4-Dichloro-N-(3,5-dichloro-4-quinolin-3-ylmethyl-phenyl)-benzenesulfonamide]", "IC50": "< 1000"},
      {"compound": "O=S(=O)(Nc1cc(Cl)c(Cc2cc3ccccc3cn2)c(Cl)c1)c1ccc(C(F)(F)F)cc1Cl", "note": "[Compound 237, 2-Chloro-N-(3,5-dichloro-4-isoquinolin-3-ylmethyl-phenyl)-4-trifluoromethyl-benzenesulfonamide]", "IC50": "< 1000"},
      {"compound": "O=S(=O)(Nc1cc(Cl)c(Cc2cc3ccccc3cn2)c(Cl)c1)c1ccc(Cl)cc1Cl", "note": "[Compound 238, 2,4-Dichloro-N-(3,5-dichloro-4-isoquinolin-3-ylmethyl-phenyl)-benzenesulfonamide]", "IC50": "< 1000"},
      {"compound": "O=S(=O)(Nc1cc(Cl)cc(Oc2nc3cc(Cl)ccc3s2)c1)c1ccc(C(F)(F)F)cc1Cl", "note": "[Compound 283, 2-Chloro-N-[3-chloro-5-(5-chloro-benzothiazol-2-yloxy)-phenyl]-4-trifluoromethyl-benzenesulfonamide]", "IC50": "1000 to 10000"},
      {"compound": "O=S(=O)(Nc1cc(Cl)cc(Oc2nc3cc(Cl)ccc3s2)c1)c1ccc(Cl)cc1Cl", "note": "[Compound 284, 2,4-Dichloro-N-[3-chloro-5-(5-chloro-benzothiazol-2-yloxy)-phenyl]-benzenesulfonamide]", "IC50": "< 1000"},
      {"compound": "Cc1cc(S(=O)(=O)Nc2cc(Cl)cc(Oc3nc4cc(Cl)ccc4s3)c2)c(Cl)cc1Cl", "note": "[Compound 285, 2,4-Dichloro-N-[3-chloro-5-(5-chloro-benzothiazol-2-yloxy)-phenyl]-5-methyl-benzenesulfonamide]", "IC50": "< 1000"},
      {"compound": "N#Cc1ccc2sc(Oc3cc(Cl)cc(NS(=O)(=O)c4ccc(C(F)(F)F)cc4Cl)c3)nc2c1", "note": "[Compound 286, 2-Chloro-N-[3-chloro-5-(5-cyano-benzothiazol-2-yloxy)-phenyl]-4-trifluoromethyl-benzenesulfonamide]", "IC50": "1000 to 10000"},
      {"compound": "N#Cc1ccc2sc(Oc3cc(Cl)cc(NS(=O)(=O)c4ccc(Cl)cc4Cl)c3)nc2c1", "note": "[Compound 287, 2,4-Dichloro-N-[3-chloro-5-(5-cyano-benzothiazol-2-yloxy)-phenyl]-benzenesulfonamide]", "IC50": "< 1000"},
      {"compound": "Cc1cc(S(=O)(=O)Nc2cc(Cl)cc(Oc3nc4cc(C#N)ccc4s3)c2)c(Cl)cc1Cl", "note": "[Compound 288, 2,4-Dichloro-N-[3-chloro-5-(5-cyano-benzothiazol-2-yloxy)-phenyl]-5-methyl-benzenesulfonamide]", "IC50": "< 1000"},
      {"compound": "O=S(=O)(Nc1cc(Cl)cc(Oc2nc3cc(-c4nnn[nH]4)ccc3s2)c1)c1ccc(C(F)(F)F)cc1Cl", "note": "[Compound 289, 2-Chloro-N-{3-chloro-5-[5-(1H-tetrazol-5-yl)-benzothiazol-2-yloxy]-phenyl}-4-trifluoromethyl-benzenesulfonamide]", "IC50": "< 1000"},
      {"compound": "O=S(=O)(Nc1cc(Cl)cc(Oc2nc3c(Cl)cccc3s2)c1)c1ccc(C(F)(F)F)cc1Cl", "note": "[Compound 290, 2-Chloro-N-[3-chloro-5-(4-chloro-benzothiazol-2-yloxy)-phenyl]-4-trifluoromethyl-benzenesulfonamide]", "IC50": "10000 to 30000"},
      {"compound": "O=S(=O)(Nc1cc(Cl)cc(Oc2nc3c(Cl)cccc3s2)c1)c1ccc(Cl)cc1Cl", "note": "[Compound 291, 2,4-Dichloro-N-[3-chloro-5-(4-chloro-benzothiazol-2-yloxy)-phenyl]-benzenesulfonamide]", "IC50": "10000 to 30000"},
      {"compound": "Cc1cc(S(=O)(=O)Nc2cc(Cl)cc(Oc3nc4c(Cl)cccc4s3)c2)c(Cl)cc1Cl", "note": "[Compound 292, 2,4-Dichloro-N-[3-chloro-5-(4-chloro-benzothiazol-2-yloxy)-phenyl]-5-methyl-benzenesulfonamide]", "IC50": "1000 to 10000"},
      {"compound": "Cc1cccc2sc(Oc3cc(Cl)cc(NS(=O)(=O)c4ccc(C(F)(F)F)cc4Cl)c3)nc12", "note": "[Compound 293, 2-Chloro-N-[3-chloro-5-(4-methyl-benzothiazol-2-yloxy)-phenyl]-4-trifluoromethyl-benzenesulfonamide]", "IC50": "< 1000"},
      {"compound": "Cc1cccc2sc(Oc3cc(Cl)cc(NS(=O)(=O)c4ccc(Cl)cc4Cl)c3)nc12", "note": "[Compound 294, 2,4-Dichloro-N-[3-chloro-5-(4-methyl-benzothiazol-2-yloxy)-phenyl]-benzenesulfonamide]", "IC50": "10000 to 30000"}
    ]}
  ]
}
